The text below walks through data of US11299518B2, “Fusion respiratory syncytial virus inhibitors and use thereof” (priority 2016, dated 2022).

As a reminder, the half-life is the time in which the quantity being followed falls by half. A word on the EC50: it is the midpoint of the concentration-response curve.

Read-outs that look alike come from different tables or passages of the source. Bridge positions count the residues as written; N and C are the ends. Square brackets hold non-standard residues; d marks the D form. Peptide text beside a SMILES is read from it. R8 = C=CCCCCCC[C@@](C)(N)C(=O)O; R5 = C=CCCC[C@@](C)(N)C(=O)O; S5 = C=CCCC[C@](C)(N)C(=O)O

A short description of data set [1]: CD spectroscopy, percentage of helicity. The note with it: CD at 222 nm, 10 mM phosphate buffer pH 7.5, 50 μM peptide, 25° C. In kind it is physicochemical. Here is the method:
The secondary structure of the peptides was then characterized by circular dichroism (DC) as described below.
The circular dichroism spectra were acquired on a Jasco J-810 and on a Chirascan spectropolarimeter. The samples were prepared in 10 mM phosphate buffer, pH 7.5, at a peptide concentration of 50 μM. Data were recorded at 25° C. by stepscan from 180 nm to 260 nm in a 0.1 cm pathlength quartz cell using 0.2 nm wavelength increments, 1 nm bandwidth and a response time of 0.5 sec. Each spectrum was an average of three measurements and was subtracted from buffer baseline. The data were converted to per residue molar ellipticity units [θ] (deg·cm2·dmol−1·residue−1) and smoothed using the Igor software. The percentage of helicity was calculated as it follows:
[formula] whereby CD222=molar ellipticity at 222 nm in [mdeg], N=number of amino acids in the peptide and C=peptide molar concentration [mol/l].

A further data set addresses T1, chymotrypsin (Bos taurus, UniProt P00766).
T1 construct: purchased Thermo Fisher Scientific
As to the kind of experiment: Proteolytic stability assay, chymotrypsin. In kind it is in vitro ADME. Particulars: chymotrypsin (isolated protease), pH 8, b240; read-out: half-life against chymotrypsin (converted). Here is the method: (§1) The compounds according to the invention are tested for their stability in a proteolytic stability assay as described below which is an important parameter to assess for the development of peptide therapeutics. Peptides of the invention 4bb, 4ca, 4a and their unstapled comparative peptide 4, as well as both SAH-RSVFBD isomers were treated with chymotrypsin and trypsin, and analysed by LC/MS to quantify the reaction products over time.
(§2) In vitro proteolytic degradation was measured via LC-MS using an Agilent Infinity 1280 UHPLC system coupled to an Agilent quadruple-time-of-flight (QTOF) 6530 with an Agilent Jet Stream electrospray ionisation (AJS ESI) source (all Agilent Technologies, Waldbronn, Germany). 5 μl of digested sample were injected onto a C18 column (Zorbax Eclipse Plus RRHD, 1.8 μm, 2.1*100 mm, Agilent Technologies, Waldbronn, Germany) equilibrated with solvent A and eluted with a flow rate of 0.4 ml/min over a 5-95% gradient of solvent B in 5 minutes, followed by 1.5 minutes at 95% and 0.5 minutes post-time where solvent A was 95% water, 5% acetonitrile with 0.2% formic acid and solvent B was 5% water, 95% acetonitrile with 0.2% formic acid. The AJS ESI source was operated with a capillary voltage of 4000V and a nozzle voltage of 600V with a drying gas temperature of 325° C. and flow rate of 10 l/min, nebulising gas pressure of 20 psi, and a sheath gas temperature of 300° C. and flow rate of 11l/min. Mass spectra were acquired in the positive ion mode from 100-3200 m/z at a rate of 1 scan per second in extended dynamic range (2 GHz) mode. The fragmentor, skimmer and octopole Radio Frequency voltages were set to 200, 60 and 750 V respectively. Data were acquired and analysed with Agilent MassHunter Workstation (version B.05).
(§3) Peptide digestion was performed as it follows: 10 μl of peptide at 0.29 mM in 50/50 acetonitrile/water were dissolved in 990 μl 100 mM Tris-HCl, pH 8.0 with 10 mM CaCl2. Following measurement of the undigested (to) sample, 10 μl of chymotrypsin at 50 μg/ml in 100 mM Tris-HCl, pH 8.0 with 10 mM CaCl2 were added and the sample was vortexed and placed immediately in the autosampler, set to 25° C. Trypsin digestion was performed as with chymotrypsin except that the buffer was in 50 mM Tris-HCl, pH8. Chymotrypsin and trypsin were purchased from Thermo Fisher Scientific.
(§4) The level of intact peptide was quantified by serial injection over time. Integration of the intact peptide compound chromatogram was performed using the Agilent Molecular Feature Extraction (MFE) algorithm. A plot of the intact peptide MFE peak area over time gave an exponential decay curve, from which the half-life was determined using MatLab […].

The next data set has as its system rHRSV-Luc. As to the kind of experiment: In vivo rHRSV-Luc infection of mice, lung histological analysis. Details: species or system BALB/c mice. The note with it: intranasal peptide, day 7 pi. Here is the method: The efficacy of peptides of the invention is tested in the following model of rHRSV infection.
Female BALB/c mice around 8 weeks of age are purchased. Mice are bred in a pathogen-free animal facility. For infection experiments, mice will be housed in cages inside stainless steel isolation cabinets that are ventilated under negative pressure with high-efficiency particulate air-filtered air. Female BALB/c mice (n=5 per group) are anesthetized by a mixture of ketamine and xylazine (1 and 0.2 mg per mouse, respectively) and infected by intranasal inoculation with 50 μl of PBS containing 6.10^4 p.f.u. of rHRSV-Luc (Luc-encoding virus that enables direct visualization of RSV replication in living mice). Peptides of the invention are administered intranasally to the mice infected or uninfected with RSV-Luc, on day 0, 2 and 4 post-infection. Body weight and temperature is monitored at days 3-10. In vivo imaging is performed each two days on anesthetized mice. At day 8, mice are killed and the safety of the treatment is investigated by a complete toxicopathological evaluation of treated mice (histologic analysis of lungs with sections of each lobe, turbinates, heart, spleen, liver, kidneys).
At day 7 pi, a time corresponding to the end of the infection in mice, the animals were sacrificed and the lungs were collected in order to perform a histological analysis. […]

The subject of a further data set is trypsin. The experiment in a line: Proteolytic stability assay, trypsin. It counts as in vitro ADME. The note with it: trypsin (isolated protease), pH 8, b240; read-out: half-life against trypsin (converted). Here is the method:
as §1, §2, §3, §4

Data set [2] deals with 5HB, a recombinant 5 helix bundle protein containing 3 HR1 domains covalently attached to 2 HR2 domains. Particulars: 50 nM 5HB, 2 nM FITC-T108.
Method: The fluorescence polarization assay was performed in 384-well plates using a Spectramax Paradigm (Molecular devices), using an excitation and emission wavelength of 485 nm and 535 nm, respectively. The acquisition time was of 700 ms and the read height was of 1 mm.
The next data set relates to RSV-mCherry. In kind it is cell-based, HRSV. The protocol: The inhibitory activity of the peptides of the invention was assessed in HEp-2 cells as described below:
A mCherry-expressing virus recently developed (Rameix-Welti et al., 2014, Nat. Commun., 5:5104) was used to avoid the cumbersome manipulations required with the GFP-expressing virus.
HEp-2 cells were seeded at 5×10^4 cells per well in 96 wells plate the day before the infection. Peptides were 2-fold serially diluted in DMSO (11 dilutions), then further diluted in MEM medium and pre-incubated for 15-20 minutes with 0.2 MOI of RSV-mCherry (Rameix-Welti et al., 2014, supra). Following the washing of Hep-2 cells with MEM without phenol red medium, the cells were incubated with the virus/peptide mixtures for a period of 1 h30-2 h. The cells were washed and further incubated in MEM media containing fetal bovine serum and the same concentration of peptide that was used during the infection step. Plates were incubated 48 h at 37° C. and the mCherry fluorescence was measured using a spectrofluorometer (Tecan infinite M200PRO) with excitation and emission wavelengths of 580 and 620 nm, respectively (expressed in relative fluorescence units RFU). Non-infected HEp-2 cells were used as standards for fluorescence background levels. Each experiment was performed in duplicate and repeated at least twice.

Data set [3] concerns RSV. Particulars: Lambert et al., 1996; read-out: EC50 reported previously; cited from earlier work.
A further data set in a line: circular dichroism. The note with it: 10 mM phosphate; pH 7.5; 25 °C; 50 uM. For orientation: Circular dichroism is the unequal absorption of left and right circularly polarised light.
For data set [4], the system named is RSV. The note with it: DeVincenzo et al., 2014; cited from earlier work.
Another data set concerns hRSV. The note with it: literature; cited from earlier work.
A further data set concerns bRSV. Particulars: literature; cited from earlier work.

For `CC[C@H](C)[C@@H]1NC(=O)[C@H](Cc2ccccc2)NC(=O)[C@@](C)(NC(=O)[C@H](CC(C)C)NC(=O)[C@H](CO)NC(=O)[C@]2(C)CCCC=CCCC[C@@](C)(NC(=O)[C@H](CCC(=O)O)NC(C)=O)C(=O)N[C@@H]([C@@H](C)CC)C(=O)N[C@@H](CC(N)=O)C(=O)N2)CCCC=CCCC[C@@](C)(C(=O)N[C@@H](CO)C(=O)N[C@@H](CC(=O)O)C(=O)N[C@@H](CCC(=O)O)C(=O)N[C@@H](CC(C)C)C(=O)N[C@@H](CC(C)C)C(=O)N[C@@H](Cc2c[nH]cn2)C(=O)N[C@@H](CC(N)=O)C(=O)N[C@H](C(N)=O)C(C)C)NC(=O)[C@H](CCCNC(=N)N)NC1=O` [Peptide 4ca] (Ac-E[R5]IN[S5]SL[S5]FIR[S5]SDELLHNV-NH2; staple 2-5, 8-12), the “% helicity” value in [1] is over 100%. In addition, the half-life at 2.9 µM is 180 h on chymotrypsin and 38 h in the data set with trypsin. In addition, the “histological changes in the lung parenchyma, mock versus peptide inoculated animals (toxicity)” value in the data set with rHRSV-Luc is “No histological changes were noticed”. In addition, in the data set on rHRSV-Luc, the “interstitial pneumonia after infection by RSV, lung histology” value is reported as “no interstitial pneumonia was observed”.
For the compound `CC[C@H](C)[C@@H]1NC(=O)[C@H](Cc2ccccc2)NC(=O)[C@@](C)(NC(=O)[C@H](CC(C)C)NC(=O)[C@H](CO)NC(=O)[C@H](CCC(N)=O)NC(=O)[C@H](CCC(=O)O)NC(C)=O)CCCC=CCCC[C@@](C)(C(=O)N[C@@H](CO)C(=O)N[C@@H](CC(=O)O)C(=O)N[C@@H](CCC(=O)O)C(=O)N[C@@H](CC(C)C)C(=O)N[C@@H](CC(C)C)C(=O)N[C@@H](Cc2c[nH]cn2)C(=O)N[C@@H](CC(N)=O)C(=O)N[C@H](C(N)=O)C(C)C)NC(=O)[C@H](CCCNC(=N)N)NC1=O` [Peptide 3a, EQSL X504 FIR X508 SDELLHNV, reference compound] (Ac-EQSL[S5]FIR[S5]SDELLHNV-NH2; staple 5-9), the “% helicity” value in data set [1] stood at 33.9%. In addition, the “block of the increase of FP / activity in the biochemical 5HB assay” value in [2] was “reasonable activity”. In addition, in the data set on RSV-mCherry (HEp-2 cells, 0.2 MOI RSV-mCherry, 48 h), the EC50 is over 25 µM. For the same compound, the “inhibitory activity in HEp-2 cells” value in the data set on RSV-mCherry (RSV-mCherry) was “inactive”.
In the case of “Ac-YDPLVFPSDEFDASISQVNEKINQSLAFIRKSDEL-NH2 (N-terminus and C-terminus assumed) [Peptide T108]”, the EC50 with RSV [3] is 1480 nM.
The compound `CC[C@H](C)[C@H](NC(=O)[C@H](CCCCN)NC(=O)[C@H](CCC(=O)O)NC(C)=O)C(=O)N[C@@H](CC(N)=O)C(=O)N[C@@H](CCC(N)=O)C(=O)N[C@@H](CO)C(=O)N[C@@H](CC(C)C)C(=O)N[C@]1(C)CCCCCCC=CCCC[C@@](C)(C(=O)N[C@@H](CC(C)C)C(=O)N[C@@H](CC(C)C)C(=O)N[C@@H](Cc2c[nH]cn2)C(=O)N[C@@H](CC(N)=O)C(=O)N[C@H](C(N)=O)C(C)C)NC(=O)[C@H](CC(=O)O)NC(=O)[C@H](CO)NC(=O)[C@H](CCCCN)NC(=O)[C@H](CCCNC(=N)N)NC(=O)[C@H]([C@@H](C)CC)NC(=O)[C@H](Cc2ccccc2)NC1=O` [Peptide 4e, EKINQSL 8504 FIRKSD X511 LLHNV, reference compound] (Ac-EKINQSL[R8]FIRKSD[S5]LLHNV-NH2; staple 8-15) yielded a helicity in the data set “circular dichroism” of 23.3%. Further, in [1], the “% helicity” value was 23.3%. In [2], the “block of the increase of FP / activity in the biochemical 5HB assay” value was “reasonable activity”.
For the compound `Cc1cn2nc([C@@H]3CCCCN3C(=O)c3cc(Cl)ccc3NS(C)(=O)=O)cc2nc1N1CC[C@H](N)C1` [GS-5806], the 50% effective concentration (EC50) with RSV [4] was 0.4 nM.
`O=c1n(Cc2nc3ccccc3n2CCCCO)c2cnccc2n1C1CC1` [BMS-433771]: the “activity against hRSV” value with hRSV is given as “active”. In addition, the “activity against bRSV” value in the data set with bRSV is given as “active”.
